Experimental data from paper PMC6445162, “Effects of NS2B-NS3 protease and furin inhibition on West Nile and Dengue virus replication” (Journal of Enzyme Inhibition and Medicinal Chemistry, 2017).
Several values for one entry are separate records, joined by “and”; a condition that tells them apart may be missing. Equal entries are not always repeated. Where two headings read alike, the source gives them in different places. Peptide text beside a SMILES is read from it.

How the values were obtained:
[1] = biological target: DENV serotype 2 NS2B-NS3 protease construct (Dengue virus serotype 2); assay: enzyme inhibition (percent inhibition of the cleavage of a fluorogenic substrate); DENV-2 NS2B-NS3pro ~39 nM in well; 100 µM inhibitor, 125 µM substrate Phac-Lys-Arg-Arg-AMC (KM = 60 µM); 100 mM Tris pH 8.5, 20% glycerol, 0.01% Triton X-100; room temperature
WNV-protease = biological target: T1, WNV-protease (West Nile virus, UniProt P06935); assay: Incubation with WNV protease and HPLC analysis of cleavage; format: biochemical; conditions: identical conditions, 4 h; data not shown
T1 construct: WNV NS2B 40-amino acid cofactor together with the NS3 protease domain
Protocol: The preferred P3-P1 Lys-Lys-Arg segment[29] was used for the preparation of a series of peptidic inhibitors. The peptides were modified in their prime site segment and at the P4 position (Table 2). […] In contrast, under identical conditions approximately 33% of the chromogenic substrate Phac-Lys-Lys-Arg-pNA was cleaved (data not shown). Thus, these compounds seem to be poor substrates of the WNV NS2B-NS3 protease and therefore, act as competitive inhibitors. The best Ki values <0.2 µM were obtained for peptides with the general structure phenylacetyl-Lys-Lys-Arg-NH2 containing an N-terminal guanidinomethyl substitution at the P4-residue.

WNV NS2B-NS3 protease [2] = biological target: T2, WNV NS2B-NS3 protease (West Nile virus, UniProt P06935); parameters: method as in PMID 23307694; conditions: reference compounds available from previous studies; cited from earlier work
T2 construct: WNV NS2B 40-amino acid cofactor together with the NS3 protease domain

DENV (strain 16681) = assay: DENV plaque assay (virus yield from infected Huh-7 cells, titration on VeroE6); format: cell-based, Dengue virus serotype 2; conditions: preliminary studies
Protocol: Inhibition of DENV propagation was determined by plaque assay as described recently[20]^,[28] with slight modifications. Huh-7 cells were seeded into 96-well plates and incubated overnight. The next day, cells were infected with DENV (strain 16681) at a multiplicity of infection (MOI) of 1 PFU/cell. Given concentrations of the compounds, dissolved in culture medium, were added to the cells together with the virus. After 2 h incubation at 37 °C, inocula were removed and cells were covered with fresh medium containing given concentrations of the inhibitors. Production of virus progeny was determined 48 h postinfection by titration of cell supernatants using a plaque assay on VeroE6 cells. Ribavirin was included as a reference compound.

WNV NS2B-NS3 protease [3] = biological target: T2, WNV NS2B-NS3 protease; assay: Enzyme kinetic inhibition of WNV NS2B-NS3 protease construct (Dixon plot); format: biochemical; conditions: for Ki: covalently linked WNV NS2B-NS3 construct, substrate Phac-Leu-Lys-Lys-Arg-AMC, Dixon plots, average of at least two measurements
Protocol: (§1) All measurements were performed at room temperature in black flat-bottom 96-well plates (Nunc, Langenselbold, Germany) using microplate readers (Tecan Safire^2, λex = 380 nm and λem = 460 nm, Tecan Group Ltd., Männedorf, Switzerland or Fluoroskan Ascent type 374, λex = 355 nm and λem = 460 nm; Thermo Fisher Scientific, Vantaa, Finland). The assays with the flavivirus protease constructs were performed with 125 μl buffer (100 mM Tris pH 8.5 containing 20% glycerol, 0.01% Triton X-100, and the inhibitor), 50 μl substrate solution, and were started by addition of 25 μl enzyme solution (total assay volume 200 μl).
For measurements with the covalently linked WNV NS2B-NS3 protease construct (∼4 nM in assay) the substrate Phac-Leu-Lys-Lys-Arg-AMC ×3 TFA (50 µM, 100 µM and 200 µM in assay, KM = 47.5 µM) was used, as described previously.
(§2) The DENV serotype 2 NS2B-NS3 protease construct was prepared from an identical clone as described by D’Arcy et al.[26] The purification of the protease was carried out in a buffer with high ion-strength and low pH value, in the absence of glycerol (20 mM Bis-Tris, 500 mM NaCl, pH 6.3), in order to prevent autolysis of the enzyme. Purification was performed by using a 5 ml HisTrapTM FF column (GE Healthcare) and subsequently, a HiLoad 16/60 SuperdexTM 75 column (GE Healthcare). The assays with the DENV-2 NS2B-NS3^pr° (∼39 nM in well) were performed with the substrate Phac-Lys-Arg-Arg-AMC ×3 TFA (125 µM, 62.5 µM and 31.25 µM in assay, KM = 60 µM). All Ki values were obtained from Dixon plots[27] and are the average of at least two measurements. Due to the weak potency of most compounds against the DENV-2 NS2B-NS3 protease construct, only the percentage of inhibition at a constant inhibitor concentration of 100 µM in the presence of 125 µM substrate was determined.

[4] = biological target: T3, DENV serotype 2 NS2B-NS3 protease (Dengue virus type 2, UniProt P14340); assay: Enzyme kinetic inhibition of DENV-2 NS2B-NS3 protease construct; format: biochemical, Dengue virus serotype 2; conditions: 100 μM inhibitor in the presence of 125 μM substrate; read-out: % Inhib. (DENV)
T3 construct: The proteolytic activity of WNV and DENV is located in the N-terminal part of its NS3 protein; made in house
Protocol: as §1, §2

T2 sequence (P06935 1502-1679): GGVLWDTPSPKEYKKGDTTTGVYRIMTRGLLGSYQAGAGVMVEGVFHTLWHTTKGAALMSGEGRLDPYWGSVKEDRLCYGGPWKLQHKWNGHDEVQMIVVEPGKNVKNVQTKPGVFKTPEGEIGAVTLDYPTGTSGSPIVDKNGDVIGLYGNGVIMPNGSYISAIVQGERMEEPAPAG
T2 sequence (P06935 1424-1463): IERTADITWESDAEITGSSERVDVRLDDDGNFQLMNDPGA
T3 sequence (P14340 1476-1653): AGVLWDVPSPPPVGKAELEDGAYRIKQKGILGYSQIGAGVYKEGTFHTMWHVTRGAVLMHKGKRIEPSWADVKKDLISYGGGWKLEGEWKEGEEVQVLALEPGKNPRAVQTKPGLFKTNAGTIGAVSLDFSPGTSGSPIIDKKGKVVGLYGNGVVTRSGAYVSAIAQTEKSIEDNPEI
T3 sequence (P14340 1398-1437): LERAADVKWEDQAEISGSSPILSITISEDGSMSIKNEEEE
T1 sequence (P06935 1502-1679): as the sequence (P06935 1502-1679) above
T1 sequence (P06935 1424-1463): as the sequence (P06935 1424-1463) above

Row | Compound | Ki (WNV NS2B-NS3 protease [3]) | inhibition at 100 µM [4] | also measured
1 | 4-(guanidinomethyl)-phenylacetyl-Lys-Lys-Arg-NH2 (peptide) |  |  | % inhibition at 100 μM inhibitor, 125 μM substrate [1]: 65%
2 | N=C(N)NCCC[C@H](NC(=O)[C@H](CCCCN)NC(=O)[C@H](CCCCN)NC(=O)Cc1ccccc1)C(=O)Nc1ccc([N+](=O)[O-])cc1 [Phac-Lys-Lys-Arg-pNA] (HELM PEPTIDE1{[O=C(Cc1ccccc1)[*:2]].K.K.R.[O=[N+]([O-])c1ccc(N[*:1])cc1]}$$$$V2.0) |  |  | amount cleaved by the WNV-protease (WNV-protease): approximately 33%
3 | N=C(N)NCCCCNC(=O)C(CCCCN)NC(=O)C(CCCCN)NC(=O)Cc1ccc(Cl)c(Cl)c1 (stereo not drawn) [3,4-di-Cl-Phac-Lys-Lys-agmatine] |  |  | Ki (WNV NS2B-NS3 protease [2]): 0.4 µM
4 | N=C(N)N[C@H]1CC[C@H](CNC(=O)[C@H](CCCCN)NC(=O)[C@H](CCCCN)NC(=O)Cc2ccc(Cl)c(Cl)c2)CC1 [inhibitor 1] |  |  | antiviral effect in DENV-infected cells (DENV (strain 16681)): no antiviral effect
5 | N=C(N)NCCC[C@H](NC(=O)[C@H](CCCCN)NC(=O)[C@H](CCCCN)NC(=O)Cc1ccccc1)C(=O)NCCCC(N)=O [inhibitor 25] (HELM PEPTIDE1{[O=C(Cc1ccccc1)[*:2]].K.K.R.[O=C(CCCN[*:1])[*:2]].[am]}$$$$V2.0) | 15 µM | 26.3% | 
6 | C[C@@H](NC(=O)[C@H](CCCNC(=N)N)NC(=O)[C@H](CCCCN)NC(=O)[C@H](CCCCN)NC(=O)Cc1ccccc1)C(N)=O [inhibitor 20] (HELM PEPTIDE1{[O=C(Cc1ccccc1)[*:2]].K.K.R.[dA].[am]}$$$$V2.0) | 75 µM | 12% | 
7 | N=C(N)NCCC[C@H](NC(=O)[C@H](CCCCN)NC(=O)[C@H](CCCCN)NC(=O)Cc1ccc(CN)cc1)C(N)=O [inhibitor 35] | 0.38 µM | 31.7% | 
8 | N=C(N)NC1CCC(CNC(=O)C(CCCCN)NC(=O)C(Cc2ccc(CN)cc2)NC(=O)Cc2ccccc2)CC1 (stereo not drawn) [inhibitor 3, Phac-Phe(4-AMe)-Lys-GCMA] | 4.7 µM and 4.71 µM | 12.4% | fold reduced potency against WNV protease (WNV NS2B-NS3 protease [3]; compared with reference inhibitor 2): 4 fold
9 | N=C(N)NCCC[C@H](NC(=O)[C@H](CCCCN)NC(=O)[C@H](CCCCN)NC(=O)Cc1cccc(CNC(=N)N)c1)C(N)=O [inhibitor 37] | 0.18 µM | 32.3% | 
10 | N=C(N)NCCC[C@H](NC(=O)[C@H](CCCCN)NC(=O)[C@H](CCCCN)NC(=O)CC1CCCCC1)C(N)=O [inhibitor 41] | 4.8 µM | 36.7% | 
11 | N=C(N)NCCC[C@H](NC(=O)[C@H](CCCCN)NC(=O)[C@H](CCCCN)NC(=O)Cc1ccc(Cl)c(Cl)c1)C(N)=O [inhibitor 29] | 1.13 µM | 25.1% | 
12 | N=C(N)NCCC[C@H](NC(=O)[C@H](CCCCN)NC(=O)[C@H](CCCCN)NC(=O)Cc1ccc(O)cc1)C(N)=O [inhibitor 33] | 0.54 µM | 27.5% | 
